The subject of series [1] is SH-SY5Y. Kind of series: Cytotoxicity against human SH-SY5Y cells expressing low level of topoisomerase I/II measured after 72 hrs by MTT assay. Type of series: functional, cell-based. On the technique in general: Tetrazolium dyes change colour on reduction, which living cells bring about.
Series [2] deals with MDA-MB-231. Kind of series: Cytotoxicity against human MDA-MB-231 cells expressing high level of topoisomerase I/II measured after 72 hrs by MTT assay. It counts as functional, cell-based. The following applies: MDA-MB-231, 72 h.
For series [3], the system named is HCT-116. Kind of series: Cytotoxicity against human HCT-116 cells expressing high level of topoisomerase I/II measured after 72 hrs by MTT assay. It counts as functional, cell-based. The following applies: HCT-116, 72 h.
The subject of series [4] is MCF7. Kind of series: Cytotoxicity against human MCF7 cells expressing high level of topoisomerase I/II measured after 72 hrs by MTT assay. The following applies: MCF7, 72 h. Type of series: functional, cell-based.
For series [5], the system named is A-375. Kind of series: Cytotoxicity against human A-375 cells expressing high level of topoisomerase I/II measured after 72 hrs by MTT assay. To be noted: A-375, 72 h. Type of series: functional, cell-based.
The subject of series [6] is A549. Kind of series: Cytotoxicity against human A549 cells expressing high level of topoisomerase I/II measured after 72 hrs by MTT assay. It counts as functional, cell-based. To be noted: A549, 72 h.
The nature of series [7]: Cytotoxicity against human L02 cells measured after 72 hrs by MTT assay. It counts as toxicity, cell-based.
Series [8] is described as follows: Cytotoxicity against human HEK293T cells measured after 72 hrs by MTT assay. Type of series: toxicity, cell-based, HEK-293T.

A value given as a limit tells only on which side of the number the result lay.

Our source for the IC50 values is ChEMBL document CHEMBL5154929, “Optimization of the Natural Product Calothrixin A to Discover Novel Dual Topoisomerase I and II Inhibitors with Improved Anticancer Activity” (J Med Chem, 2022).

`CC1(C)OC[C@H](Cn2cc(Cn3c4c(c5ccccc53)C(=O)c3c[n+]([O-])c5ccccc5c3C4=O)nn2)O1`: the IC50 (as a rule, the concentration needed to halve the response being measured) was found to be 820 nM in series [1]; 530 nM in series [2]; 130 nM in series [3]; 530 nM in series [4]; 180 nM in series [5]; 340 nM in series [6]. Moreover, the values for the IC50 at 72 h in series [7] and in series [8] were 470 nM and 100 nM, respectively.
Consider `CC1(C)OC[C@@H](Cn2cc(Cn3c4c(c5ccccc53)C(=O)c3c[n+]([O-])c5ccccc5c3C4=O)nn2)O1`, for which the IC50 in series [1] is above 1000 nM; in series [2], above 1000 nM; in series [3], 340 nM; in series [4] it was above 1000 nM; in series [5] it was 450 nM; in series [6], 4700 nM. Moreover, the IC50 at 72 h is 2900 nM in series [7] and 6020 nM in series [8].
`CN(C)CCCCCn1c2c(c3ccccc31)C(=O)c1c[n+]([O-])c3ccccc3c1C2=O`: the IC50 is 370 nM in series [1]; 240 nM in series [2]; 470 nM in series [3]; 200 nM in series [4]; 560 nM in series [5]; 210 nM in series [6]. The values for the IC50 at 72 h in series [7] and in series [8] were 240 nM and 70 nM, respectively.
With `O=C1c2c[n+]([O-])c3ccccc3c2C(=O)c2c1c1ccccc1n2Cc1cn([C@@H]2O[C@H](CO)[C@@H](O)[C@H](O)[C@H]2O)nn1`, the IC50 in series [1] was found to be 880 nM; in series [2], 650 nM; in series [3] it was 130 nM; in series [4], 590 nM; in series [5] it was 230 nM; in series [6], 560 nM. The IC50 at 72 h in series [7] turned out to be 420 nM; in series [8] it was 940 nM.
With `O=C1c2c[n+]([O-])c3ccccc3c2C(=O)c2c1c1ccccc1n2Cc1cn(CC(O)CO)nn1` (stereo not given), the IC50 is above 1000 nM in series [1]; 1290 nM in series [2]; 250 nM in series [3]; 1110 nM in series [4]; 440 nM in series [5]; 880 nM in series [6]. Moreover, the IC50 at 72 h in series [7] came out at 1070 nM; in series [8], 760 nM.
On to `O=C1c2c[n+]([O-])c3ccccc3c2C(=O)c2c1c1ccccc1n2CCCCN1CCN(CCO)CC1`, for which the IC50 worked out at 450 nM in series [1]; 740 nM in series [2]; 330 nM in series [3]; 380 nM in series [4]; 470 nM in series [5]; 200 nM in series [6]. For the same molecule, in series [7], the IC50 at 72 h amounted to 880 nM.
As to `CN1CCN(CCCCCCn2c3c(c4ccccc42)C(=O)c2c[n+]([O-])c4ccccc4c2C3=O)CC1`, the IC50 in series [1] came to 920 nM; in series [2], 2400 nM; in series [3], 2900 nM; in series [4], 400 nM; in series [5] it was 630 nM; in series [6] it was 330 nM. Besides, the 50% inhibitory concentration (IC50) at 72 h in series [7] came to 3800 nM; in series [8], 5800 nM.
As for `CCOC(=O)[C@@H]1OC(C)(C)O[C@H]1Cn1cc(Cn2c3c(c4ccccc42)C(=O)c2c[n+]([O-])c4ccccc4c2C3=O)nn1`, the IC50 in series [1] was above 1000 nM; in series [2], 1040 nM; in series [3], 780 nM; in series [4], above 1000 nM; in series [5] it was 570 nM; in series [6], above 1000 nM. Besides, the IC50 at 72 h is 840 nM in series [7] and 130 nM in series [8].
On to `CN(C)CCn1c2c(c3ccccc31)C(=O)c1c[n+]([O-])c3ccccc3c1C2=O`, for which the IC50 in series [1] turned out to be 170 nM; in series [2], 160 nM; in series [3], 110 nM; in series [4] it was 200 nM; in series [5], 140 nM; in series [6] it was 200 nM. Further, the IC50 at 72 h in series [7] was 750 nM.
Turning to `CC(=O)OC[C@H]1O[C@@H](n2cc(Cn3c4c(c5ccccc53)C(=O)c3c[n+]([O-])c5ccccc5c3C4=O)nn2)[C@H](OC(C)=O)[C@@H](OC(C)=O)[C@@H]1OC(C)=O`, the IC50 in series [1] was found to be 640 nM; in series [2], 400 nM; in series [3] it was 760 nM; in series [4] it was 330 nM; in series [5], 560 nM; in series [6] it was 290 nM. Besides, the IC50 at 72 h in series [7] is 270 nM; in series [8], 2430 nM.
`CC(=O)OC[C@H]1O[C@H](n2cc(Cn3c4c(c5ccccc53)C(=O)c3c[n+]([O-])c5ccccc5c3C4=O)nn2)[C@H](OC(C)=O)[C@@H]1OC(C)=O`: the IC50 in series [1] came to 510 nM; in series [2], 250 nM; in series [3], 150 nM; in series [4], 670 nM; in series [5], 690 nM; in series [6] it was 430 nM. Besides, the values for the IC50 at 72 h in series [7] and in series [8] were 90 nM and 210 nM, respectively.
With `O=C1c2c[n+]([O-])c3ccccc3c2C(=O)c2c1c1ccccc1n2CCCCN1CCOCC1`, the IC50 in series [1] amounted to 170 nM; in series [2] it was 240 nM; in series [3], 90 nM; in series [4] it was 130 nM; in series [5] it was 170 nM; in series [6], 90 nM. Further, the IC50 at 72 h in series [7] was 510 nM.
Consider `CCCN1CCN(CCCCn2c3c(c4ccccc42)C(=O)c2c[n+]([O-])c4ccccc4c2C3=O)CC1`, for which the IC50 in series [1] was determined as 3970 nM; in series [2], 2980 nM; in series [3], 790 nM; in series [4], 1280 nM; in series [5], 870 nM; in series [6], 320 nM. In series [7], this molecule gave an IC50 at 72 h of 6830 nM.
With `O=C1c2c[n+]([O-])c3ccccc3c2C(=O)c2c1c1ccccc1n2CCN1CCCC1`, the IC50 in series [1] came to 520 nM; in series [2], 630 nM; in series [3] it was 270 nM; in series [4], 320 nM; in series [5], 430 nM; in series [6], 410 nM. This molecule also returned an IC50 at 72 h in series [7] of 930 nM.
On to `O=C1c2c[n+]([O-])c3ccccc3c2C(=O)c2c1c1ccccc1n2CCN1CCCCC1`, for which the IC50 in series [1] came out at 1860 nM; in series [2] it was 1050 nM; in series [3], 780 nM; in series [4], 620 nM; in series [5], 180 nM; in series [6], 1080 nM. This molecule also returned an IC50 at 72 h in series [7] of 1050 nM.
On to `O=C1c2c[n+]([O-])c3ccccc3c2C(=O)c2c1c1ccccc1n2CCCCN1CCCCC1`, for which the IC50 was 230 nM in series [1]; 610 nM in series [2]; 200 nM in series [3]; 150 nM in series [4]; 190 nM in series [5]; 150 nM in series [6]. Further, the IC50 at 72 h in series [7] turned out to be 610 nM.
Take `O=C1c2c[n+]([O-])c3ccccc3c2C(=O)c2c1c1ccccc1n2CCN1CCOCC1`: the IC50 came out at 2020 nM in series [1]; 2030 nM in series [2]; 1280 nM in series [3]; 1740 nM in series [4]; 820 nM in series [5]; 560 nM in series [6]. In addition, the IC50 at 72 h in series [7] was determined as 1730 nM.
With `CCCCN1CCN(CCCCn2c3c(c4ccccc42)C(=O)c2c[n+]([O-])c4ccccc4c2C3=O)CC1`, the IC50 in series [1] is 6100 nM; in series [2], 900 nM; in series [3], 1920 nM; in series [4], 6900 nM; in series [5], 2150 nM; in series [6] it was 550 nM. In series [7], this molecule had an IC50 at 72 h of 5690 nM.
